In paper PMC4076210, “Discovery of Novel AKT Inhibitors with Enhanced Anti-Tumor Effects in Combination with the MEK Inhibitor” (PLoS ONE, 2014):
Where two headings read alike, the source gives them in different places.

What was measured:
MAPKAP-K3(h) = biological target: T1, MAPKAP-K3(h) (Homo sapiens, UniProt Q16644); assay: Kinase panel; assay type: biochemical
T1 construct: purchased Millipore KinaseProfiler

RIPK2(h) = biological target: T2, RIPK2(h) (Homo sapiens, UniProt O43353); assay: Kinase panel; assay type: biochemical
T2 construct: purchased Millipore KinaseProfiler
T2 sequence (O43353 whole entry): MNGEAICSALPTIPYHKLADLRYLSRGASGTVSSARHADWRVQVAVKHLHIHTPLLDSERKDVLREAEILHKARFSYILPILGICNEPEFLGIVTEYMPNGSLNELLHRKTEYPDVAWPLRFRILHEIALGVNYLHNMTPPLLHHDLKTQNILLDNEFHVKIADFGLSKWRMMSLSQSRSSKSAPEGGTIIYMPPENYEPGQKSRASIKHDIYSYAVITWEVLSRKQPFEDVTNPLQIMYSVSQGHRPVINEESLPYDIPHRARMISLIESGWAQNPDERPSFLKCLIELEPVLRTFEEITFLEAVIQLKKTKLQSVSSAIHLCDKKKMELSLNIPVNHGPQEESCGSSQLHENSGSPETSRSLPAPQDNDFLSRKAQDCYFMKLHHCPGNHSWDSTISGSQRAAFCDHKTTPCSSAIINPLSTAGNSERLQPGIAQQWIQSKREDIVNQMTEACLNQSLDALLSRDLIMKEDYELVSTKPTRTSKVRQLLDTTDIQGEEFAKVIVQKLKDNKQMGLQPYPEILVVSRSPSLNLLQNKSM

ULK3(h) = biological target: T3, ULK3(h) (Homo sapiens, UniProt Q6PHR2); assay: Kinase panel; assay type: biochemical
T3 construct: purchased Millipore KinaseProfiler
T3 sequence (Q6PHR2 1-472): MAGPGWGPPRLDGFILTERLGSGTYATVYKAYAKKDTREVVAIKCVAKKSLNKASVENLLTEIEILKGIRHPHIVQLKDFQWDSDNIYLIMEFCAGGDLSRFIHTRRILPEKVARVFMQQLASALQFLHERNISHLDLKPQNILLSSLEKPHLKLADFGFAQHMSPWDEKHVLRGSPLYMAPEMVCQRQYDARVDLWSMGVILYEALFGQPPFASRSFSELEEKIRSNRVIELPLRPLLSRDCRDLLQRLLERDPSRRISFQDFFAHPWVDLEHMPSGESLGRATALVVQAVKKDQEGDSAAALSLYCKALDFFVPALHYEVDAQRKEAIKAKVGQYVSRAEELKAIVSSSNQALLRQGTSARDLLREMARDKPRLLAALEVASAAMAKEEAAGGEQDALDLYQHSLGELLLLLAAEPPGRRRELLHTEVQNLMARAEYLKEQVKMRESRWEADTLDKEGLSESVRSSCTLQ

CDK1/cyclinB(h) = biological target: T4, CDK1/cyclinB(h) (Homo sapiens, UniProt P06493); assay: Kinase panel; assay type: biochemical
T4 construct: purchased Millipore KinaseProfiler
T4 sequence (P06493 whole entry): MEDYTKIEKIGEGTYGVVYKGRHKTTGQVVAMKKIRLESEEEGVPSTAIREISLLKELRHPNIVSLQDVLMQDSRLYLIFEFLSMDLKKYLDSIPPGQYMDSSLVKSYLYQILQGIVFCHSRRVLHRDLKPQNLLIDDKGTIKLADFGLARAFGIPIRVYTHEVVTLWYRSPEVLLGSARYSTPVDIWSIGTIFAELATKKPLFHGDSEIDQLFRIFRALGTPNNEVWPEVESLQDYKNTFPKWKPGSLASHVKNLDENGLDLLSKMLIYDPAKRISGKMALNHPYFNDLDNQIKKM
T4 sequence (P14635 whole entry partner): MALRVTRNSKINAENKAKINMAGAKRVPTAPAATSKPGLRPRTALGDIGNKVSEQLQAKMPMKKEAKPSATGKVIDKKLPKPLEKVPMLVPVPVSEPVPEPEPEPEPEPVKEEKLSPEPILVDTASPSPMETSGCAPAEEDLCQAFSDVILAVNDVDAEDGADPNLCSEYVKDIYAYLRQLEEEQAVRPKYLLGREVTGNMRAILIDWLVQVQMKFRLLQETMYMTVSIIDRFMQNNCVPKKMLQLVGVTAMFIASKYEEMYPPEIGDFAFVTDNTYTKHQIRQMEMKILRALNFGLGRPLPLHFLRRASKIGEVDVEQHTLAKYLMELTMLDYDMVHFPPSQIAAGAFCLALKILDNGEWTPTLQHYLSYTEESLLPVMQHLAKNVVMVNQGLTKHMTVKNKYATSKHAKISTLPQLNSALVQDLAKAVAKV

CK1γ3(h) = biological target: T5, CK1γ3(h) (Homo sapiens, UniProt Q9Y6M4); assay: Kinase panel; assay type: biochemical
T5 construct: purchased Millipore KinaseProfiler
T5 sequence (Q9Y6M4 whole entry): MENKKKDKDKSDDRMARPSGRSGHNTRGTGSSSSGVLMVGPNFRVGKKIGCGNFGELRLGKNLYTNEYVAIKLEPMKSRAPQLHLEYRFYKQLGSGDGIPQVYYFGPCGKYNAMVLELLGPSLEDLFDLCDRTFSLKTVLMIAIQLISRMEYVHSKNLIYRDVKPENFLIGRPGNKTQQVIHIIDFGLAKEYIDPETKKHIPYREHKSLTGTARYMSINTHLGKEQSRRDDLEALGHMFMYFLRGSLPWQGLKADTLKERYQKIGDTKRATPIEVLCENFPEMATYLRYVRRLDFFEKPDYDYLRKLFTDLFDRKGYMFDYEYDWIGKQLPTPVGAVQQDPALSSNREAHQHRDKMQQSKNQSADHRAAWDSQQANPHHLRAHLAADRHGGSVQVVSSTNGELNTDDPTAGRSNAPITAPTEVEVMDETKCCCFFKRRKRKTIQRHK

SGK2(h) = biological target: T6, SGK2(h) (Homo sapiens, UniProt Q9HBY8); assay: Kinase panel; assay type: biochemical
T6 construct: purchased Millipore KinaseProfiler
T6 sequence (Q9HBY8 1-367): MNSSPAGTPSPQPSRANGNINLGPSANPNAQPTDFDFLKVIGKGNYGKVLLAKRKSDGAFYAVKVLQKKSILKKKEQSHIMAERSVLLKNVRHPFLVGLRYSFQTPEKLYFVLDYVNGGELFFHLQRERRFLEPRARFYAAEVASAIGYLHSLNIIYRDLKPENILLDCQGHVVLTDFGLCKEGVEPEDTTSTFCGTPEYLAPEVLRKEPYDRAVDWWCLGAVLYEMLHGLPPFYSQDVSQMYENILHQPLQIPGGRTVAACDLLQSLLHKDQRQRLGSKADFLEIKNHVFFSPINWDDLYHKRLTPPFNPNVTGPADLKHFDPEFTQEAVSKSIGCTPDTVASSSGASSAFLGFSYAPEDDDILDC

MST2(h) = biological target: T7, MST2(h) (Homo sapiens, UniProt Q13188); assay: Kinase panel; assay type: biochemical
T7 construct: purchased Millipore KinaseProfiler
T7 sequence (Q13188 1-491): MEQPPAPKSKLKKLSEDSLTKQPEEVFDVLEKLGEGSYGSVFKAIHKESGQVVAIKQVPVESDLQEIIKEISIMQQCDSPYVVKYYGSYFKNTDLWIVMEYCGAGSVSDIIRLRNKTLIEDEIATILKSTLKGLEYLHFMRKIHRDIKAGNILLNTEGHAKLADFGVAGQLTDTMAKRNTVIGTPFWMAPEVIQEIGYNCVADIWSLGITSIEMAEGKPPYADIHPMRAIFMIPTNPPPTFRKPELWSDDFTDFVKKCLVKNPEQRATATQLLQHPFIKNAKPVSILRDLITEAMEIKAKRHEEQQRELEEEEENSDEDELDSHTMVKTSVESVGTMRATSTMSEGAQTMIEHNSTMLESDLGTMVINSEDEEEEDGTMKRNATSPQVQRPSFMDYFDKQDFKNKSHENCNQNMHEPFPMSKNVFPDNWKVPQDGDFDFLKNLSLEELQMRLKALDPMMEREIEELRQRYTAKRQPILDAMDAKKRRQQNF

CK2(h) = biological target: T8, CK2(h) (Homo sapiens, UniProt P68400); assay: Kinase panel; assay type: biochemical
T8 construct: purchased Millipore KinaseProfiler
T8 sequence (P68400 whole entry): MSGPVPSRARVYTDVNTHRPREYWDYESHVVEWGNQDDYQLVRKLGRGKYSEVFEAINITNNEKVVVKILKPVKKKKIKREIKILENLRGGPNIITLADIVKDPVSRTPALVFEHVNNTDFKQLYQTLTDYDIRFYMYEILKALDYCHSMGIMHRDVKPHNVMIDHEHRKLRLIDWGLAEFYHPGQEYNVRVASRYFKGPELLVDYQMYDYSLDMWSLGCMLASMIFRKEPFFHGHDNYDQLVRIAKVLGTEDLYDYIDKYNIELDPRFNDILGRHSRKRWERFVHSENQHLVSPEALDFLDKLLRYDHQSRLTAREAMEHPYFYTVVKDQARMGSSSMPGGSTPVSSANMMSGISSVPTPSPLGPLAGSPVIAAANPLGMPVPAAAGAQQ
T8 sequence (P67870 whole entry partner): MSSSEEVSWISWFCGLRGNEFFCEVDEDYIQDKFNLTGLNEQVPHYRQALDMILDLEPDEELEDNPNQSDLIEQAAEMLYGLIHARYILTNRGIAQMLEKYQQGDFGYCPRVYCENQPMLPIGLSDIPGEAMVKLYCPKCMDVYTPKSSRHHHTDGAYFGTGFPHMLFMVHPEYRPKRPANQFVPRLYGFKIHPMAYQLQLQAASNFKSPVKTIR

WNK2(h) = biological target: T9, WNK2(h) (Homo sapiens, UniProt Q9Y3S1); assay: Kinase panel; assay type: biochemical
T9 construct: purchased Millipore KinaseProfiler

Pim-2(h) = biological target: T10, Pim-2(h) (Homo sapiens, UniProt Q9P1W9); assay: Kinase panel; assay type: biochemical
T10 construct: purchased Millipore KinaseProfiler
T10 sequence (Q9P1W9 whole entry): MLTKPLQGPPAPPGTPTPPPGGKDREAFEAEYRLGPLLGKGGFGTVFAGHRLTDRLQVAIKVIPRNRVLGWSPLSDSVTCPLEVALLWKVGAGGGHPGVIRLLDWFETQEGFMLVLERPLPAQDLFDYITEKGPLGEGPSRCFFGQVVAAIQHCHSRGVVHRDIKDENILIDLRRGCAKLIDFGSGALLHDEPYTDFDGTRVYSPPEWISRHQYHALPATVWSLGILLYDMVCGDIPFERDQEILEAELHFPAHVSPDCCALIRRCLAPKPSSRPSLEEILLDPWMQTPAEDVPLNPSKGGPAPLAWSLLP

Hck(h) = biological target: T11, Hck(h) (Homo sapiens, UniProt P08631); assay: Kinase panel; assay type: biochemical
T11 construct: purchased Millipore KinaseProfiler
T11 sequence (P08631 whole entry): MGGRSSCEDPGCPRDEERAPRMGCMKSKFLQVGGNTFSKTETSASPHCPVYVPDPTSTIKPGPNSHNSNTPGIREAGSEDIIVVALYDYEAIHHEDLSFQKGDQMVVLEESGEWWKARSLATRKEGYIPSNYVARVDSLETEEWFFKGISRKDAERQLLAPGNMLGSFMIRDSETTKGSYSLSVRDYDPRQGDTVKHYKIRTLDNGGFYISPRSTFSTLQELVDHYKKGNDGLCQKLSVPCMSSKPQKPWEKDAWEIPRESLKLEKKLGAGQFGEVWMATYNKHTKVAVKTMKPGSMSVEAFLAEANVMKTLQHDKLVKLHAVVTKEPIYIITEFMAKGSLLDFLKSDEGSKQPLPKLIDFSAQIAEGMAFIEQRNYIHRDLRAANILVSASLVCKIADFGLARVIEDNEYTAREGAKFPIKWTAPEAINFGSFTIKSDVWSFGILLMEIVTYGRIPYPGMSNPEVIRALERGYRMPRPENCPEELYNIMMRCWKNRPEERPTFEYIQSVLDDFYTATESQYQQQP

PKCγ = PKCγ (Homo sapiens, UniProt P05129); assay: Kinase IC50 assay; assay type: biochemical
SGK3(h) = biological target: T12, SGK3(h) (Homo sapiens, UniProt Q96BR1); assay: Kinase panel
T12 sequence (Q96BR1 1-496): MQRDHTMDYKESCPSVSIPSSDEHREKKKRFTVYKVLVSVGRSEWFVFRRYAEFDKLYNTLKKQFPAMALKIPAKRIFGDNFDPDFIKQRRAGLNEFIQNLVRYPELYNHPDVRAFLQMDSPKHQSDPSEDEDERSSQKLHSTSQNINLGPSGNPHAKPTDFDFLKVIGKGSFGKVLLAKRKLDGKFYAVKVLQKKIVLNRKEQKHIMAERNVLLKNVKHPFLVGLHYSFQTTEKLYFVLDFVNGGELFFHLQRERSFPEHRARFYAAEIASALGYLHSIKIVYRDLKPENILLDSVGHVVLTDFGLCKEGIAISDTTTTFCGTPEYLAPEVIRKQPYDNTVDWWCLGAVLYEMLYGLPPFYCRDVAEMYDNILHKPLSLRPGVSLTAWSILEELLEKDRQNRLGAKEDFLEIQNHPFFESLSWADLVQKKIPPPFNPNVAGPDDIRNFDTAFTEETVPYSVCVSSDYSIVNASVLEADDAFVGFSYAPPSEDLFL

T1 sequence (Q16644 whole entry): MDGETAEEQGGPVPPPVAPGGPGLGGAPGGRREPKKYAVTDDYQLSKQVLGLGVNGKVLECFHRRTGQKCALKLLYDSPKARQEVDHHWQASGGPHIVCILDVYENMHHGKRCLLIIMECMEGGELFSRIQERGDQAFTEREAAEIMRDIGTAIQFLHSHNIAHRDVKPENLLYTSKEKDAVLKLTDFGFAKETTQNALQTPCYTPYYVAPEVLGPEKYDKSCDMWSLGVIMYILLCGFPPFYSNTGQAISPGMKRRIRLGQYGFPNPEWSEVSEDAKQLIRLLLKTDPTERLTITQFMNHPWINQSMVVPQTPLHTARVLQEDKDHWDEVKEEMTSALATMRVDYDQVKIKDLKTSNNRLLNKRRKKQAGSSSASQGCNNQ

SMILES: Cn1ncc(Cl)c1-c1cc(C(=O)N[C@H](CN)Cc2cccc(F)c2)sc1Cl [GSK2110183]
- inhibition at 0.5 µM (MAPKAP-K3(h)): 4%
- inhibition at 10 µM (MAPKAP-K3(h)): 10%
- inhibition at 0.5 µM (RIPK2(h)): -8%
- inhibition at 10 µM (RIPK2(h)): -3%
- inhibition at 0.5 µM (ULK3(h)): 20%
- inhibition at 10 µM (ULK3(h)): 72%
- inhibition at 0.5 µM (CDK1/cyclinB(h)): -3%
- inhibition at 10 µM (CDK1/cyclinB(h)): 7%
- inhibition at 0.5 µM (CK1γ3(h)): 7%
- inhibition at 10 µM (CK1γ3(h)): 28%
- inhibition at 0.5 µM (SGK2(h)): 51%
- inhibition at 10 µM (SGK2(h)): 95%
- inhibition at 0.5 µM (MST2(h)): -4%
- inhibition at 10 µM (MST2(h)): -2%
- inhibition at 0.5 µM (CK2(h)): 3%
- inhibition at 10 µM (CK2(h)): 8%
- inhibition at 0.5 µM (WNK2(h)): 1%
- inhibition at 10 µM (WNK2(h)): 26%
- inhibition at 0.5 µM (Pim-2(h)): 5%
- inhibition at 10 µM (Pim-2(h)): 35%
- inhibition at 0.5 µM (Hck(h)): -21%
- inhibition at 10 µM (Hck(h)): -8%
- IC50 (PKCγ): > 1000 nM
- inhibition at 0.5 µM (SGK3(h)): 7%
- inhibition at 10 µM (SGK3(h)): 76%

SMILES: Cn1ncc(Cl)c1-c1cc(C(=O)N[C@H](CN)Cc2ccc(F)c(F)c2)oc1Cl [GSK2141795]
- inhibition at 0.5 µM (MAPKAP-K3(h); 0.5 µM, read-out: % Inhibition): -8%
- inhibition at 10 µM (MAPKAP-K3(h); 10 µM, read-out: % Inhibition): -2%
- inhibition at 0.5 µM (RIPK2(h); 0.5 µM, read-out: % Inhibition): 3%
- inhibition at 10 µM (RIPK2(h); 10 µM, read-out: % Inhibition): 15%
- inhibition at 0.5 µM (ULK3(h); 0.5 µM, read-out: % Inhibition): 0%
- inhibition at 10 µM (ULK3(h); 10 µM, read-out: % Inhibition): 49%
- inhibition at 0.5 µM (CDK1/cyclinB(h); 0.5 µM, read-out: % Inhibition): -5%
- inhibition at 10 µM (CDK1/cyclinB(h); 10 µM, read-out: % Inhibition): 12%
- inhibition at 0.5 µM (CK1γ3(h); 0.5 µM, read-out: % Inhibition): -14%
- inhibition at 10 µM (CK1γ3(h); 10 µM, read-out: % Inhibition): 51%
- inhibition at 0.5 µM (SGK2(h); 0.5 µM, read-out: % Inhibition): 67%
- inhibition at 10 µM (SGK2(h); 10 µM, read-out: % Inhibition): 97%
- inhibition at 0.5 µM (MST2(h); 0.5 µM, read-out: % Inhibition): -2%
- inhibition at 10 µM (MST2(h); 10 µM, read-out: % Inhibition): 4%
- inhibition at 0.5 µM (CK2(h); 0.5 µM, read-out: % Inhibition): 4%
- inhibition at 10 µM (CK2(h); 10 µM, read-out: % Inhibition): 9%
- inhibition at 0.5 µM (WNK2(h); 0.5 µM, read-out: % Inhibition): -12%
- inhibition at 10 µM (WNK2(h); 10 µM, read-out: % Inhibition): 3%
- inhibition at 0.5 µM (Pim-2(h); 0.5 µM, read-out: % Inhibition): -7%
- inhibition at 10 µM (Pim-2(h); 10 µM, read-out: % Inhibition): 9%
- inhibition at 0.5 µM (Hck(h); 0.5 µM, read-out: % Inhibition): -5%
- inhibition at 10 µM (Hck(h); 10 µM, read-out: % Inhibition): 27%
- IC50 (PKCγ): 200 nM
- inhibition at 0.5 µM (SGK3(h)): 18%
- inhibition at 10 µM (SGK3(h)): 84%
